pIC50: −log10 of the molar value.
Columns and labels:
HL60 (leukemia) = assay: In vitro cytotoxic activity assay (MTT); type: cell-based; conditions: Homo sapiens, HL-60; HL60 cells, exposed for 96 hours, 50% inhibition of cell proliferation; read-out: Cytotoxicity activity IC50, HL60 (leukemia)
Protocol: (§1) Compounds 1-16 were screened for their in vitro cytotoxic activity utilizing a 3-(4,5-dimethyl-thiazol-2-yl)-2,5-diphenyltetrazolium bromide (MTT) assay against selected cancer human cell lines consisting of PC3 (prostate), HCT116 (colon), A375 (melanoma), H1299 (lung), MIAPaCa-2 (pancreas), HL60 (leukemia), MCF7 (breast), MDA-MB-231 (breast) (T. Mosmann, J. Immunol. Meth., 1983, 65, 55-63). The cells were cultured at 37° C. in RMPI1640 medium supplemented with 10% fetal bovine serum, 50 IU/mL penicillin, and 50 μg/mL streptomycin in a 5% CO2 incubator. All cells were sub-cultured 3 times/week by trypsinisation. Viable cells were seeded and allowed to adhere for 12 hours before a test drug was added in 96-well plates at an initial density of 1.0×10^5 cells/mL. Tumor cell lines were separately exposed to various concentrations of the tested compounds followed by incubation at a temperature of 37° C. during 96 hours inside a medium of fresh RMPI 1640. Cells were subsequently incubated at 37° C. using MTT at 0.5 mg/mL during 4 hours. After removal of supernatant, formazan crystals were dissolved in isopropanol and the optical density was measured at 570 nm. CX-4945 was used as a positive control.

HCT116 (colon) = assay: In vitro cytotoxic activity assay (MTT); type: cell-based; conditions: Homo sapiens, HCT-116; HCT116 cells, exposed for 96 hours, 50% inhibition of cell proliferation; read-out: Cytotoxicity activity IC50, HCT116 (colon)
Protocol: as §1

MCF7 (breast) = assay: In vitro cytotoxic activity assay (MTT); type: cell-based; conditions: Homo sapiens; MCF7 cells, exposed for 96 hours, 50% inhibition of cell proliferation; read-out: Cytotoxicity activity IC50, MCF7 (breast)
Protocol: as §1

MDA-MB-231 (breast) = assay: In vitro cytotoxic activity assay (MTT); type: cell-based; conditions: Homo sapiens; MDA-MB-231 cells, exposed for 96 hours, 50% inhibition of cell proliferation; read-out: Cytotoxicity activity IC50, MDA-MB-231 (breast)
Protocol: as §1

A375 (melanoma) = assay: In vitro cytotoxic activity assay (MTT); type: cell-based; conditions: Homo sapiens, A-375; A375 cells, exposed for 96 hours, 50% inhibition of cell proliferation; read-out: Cytotoxicity activity IC50, A375 (melanoma)
Protocol: as §1

H1299 (lung) = assay: In vitro cytotoxic activity assay (MTT); type: cell-based; conditions: Homo sapiens, NCI-H1299; H1299 cells, exposed for 96 hours, 50% inhibition of cell proliferation; read-out: Cytotoxicity activity IC50, H1299 (lung)
Protocol: as §1

PC3 (prostate) = assay: In vitro cytotoxic activity assay (MTT); type: cell-based; conditions: Homo sapiens, PC-3; PC3 cells, exposed for 96 hours, 50% inhibition of cell proliferation; read-out: Cytotoxicity activity IC50, PC3 (prostate)
Protocol: as §1

MIAPaCa-2 (pancreas) = assay: In vitro cytotoxic activity assay (MTT); type: cell-based; conditions: Homo sapiens, MIA PaCa-2; MIAPaCa-2 cells, exposed for 96 hours, 50% inhibition of cell proliferation; read-out: Cytotoxicity activity IC50, MIAPaCa-2 (pancreas)
Protocol: as §1

[1] = biological target: T1, recombinant human CK2 (RRββ-holoenzyme) (Homo sapiens, UniProt P68400); assay: CK2 Kinase Assay (radiometric, [γ-33P] ATP); type: biochemical; conditions: final ATP concentration 15 μM, 10 min at 30° C., eight concentrations; read-out: protein kinase CK2 activity IC50
T1 construct: purchased Millipore
T1 sequence (P68400 whole entry): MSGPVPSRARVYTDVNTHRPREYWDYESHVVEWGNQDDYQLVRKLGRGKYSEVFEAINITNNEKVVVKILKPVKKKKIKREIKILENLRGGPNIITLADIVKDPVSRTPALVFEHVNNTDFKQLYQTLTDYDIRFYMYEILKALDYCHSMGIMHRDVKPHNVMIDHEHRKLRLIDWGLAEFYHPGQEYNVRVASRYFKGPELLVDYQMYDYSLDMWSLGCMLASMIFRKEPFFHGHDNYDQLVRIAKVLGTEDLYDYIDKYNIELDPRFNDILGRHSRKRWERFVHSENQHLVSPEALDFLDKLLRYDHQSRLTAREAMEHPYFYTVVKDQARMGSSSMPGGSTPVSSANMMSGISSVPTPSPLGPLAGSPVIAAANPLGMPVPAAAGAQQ
T1 sequence (P67870 whole entry partner): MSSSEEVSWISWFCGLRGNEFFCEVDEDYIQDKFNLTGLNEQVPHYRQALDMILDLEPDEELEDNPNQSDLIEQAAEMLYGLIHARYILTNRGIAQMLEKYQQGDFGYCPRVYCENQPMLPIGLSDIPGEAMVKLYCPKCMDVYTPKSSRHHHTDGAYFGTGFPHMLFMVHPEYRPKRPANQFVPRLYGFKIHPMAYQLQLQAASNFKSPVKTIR
Protocol: CK2 Kinase Assay was conducted using the protocol as described in Pierre F. et al; J. Med. Chem. 2011, 54, 635-654. The tested compounds in aqueous solution were added at a volume of 10 μL to a reaction mixture comprising 10 μL of assay dilution buffer (ADB; 20 mM MOPS, pH 7.2, 25 mM β-glycerol phosphate, 5 mM EGTA, 1 mM sodium orthovanadate, and 1 mM dithiothreitol), 10 μL of substrate peptide (RRRDDDSDDD, dissolved in ADB at a concentration of 1 mM), 10 μL of recombinant human CK2 (RRββ-holoenzyme, 25 ng dissolved in ADB; Millipore). Reactions were initiated by the addition of 10 μL of ATP solution (90% 75 mMMgC2, 75 μM ATP (final ATP concentration: 15 μM) dissolved in ADB; 10% [γ-33P] ATP (stock 1 mCi/100 μL; 3000 Ci/mmol (Perkin-Elmer) and maintained for 10 min at 30° C. The reactions were quenched with 100 μL of 0.75% phosphoric acid and then transferred to and filtered through a phosphor cellulose filter plate (Millipore). After washing each well five times with 0.75% phosphoric acid, the plate was dried under vacuum for 5 min and, following the addition of 15 μL of scintillation fluid to each well, the residual radioactivity was measured using a Wallac luminescence counter. The IC50 values were derived from eight concentrations of test inhibitors.

`Clc1cccc(Nc2nc3[nH]c4cnccc4c3c3ccncc23)c1` [Compound 1, N-(3-chlorophenyl)-7H-pyrido[4′,3′:4,5]pyrrolo[2,3-c][2,7]naphthyridin-5-amine] was tested. Which pIC50 (HL60 (leukemia)) did it give?
The pIC50 was 5.48.

And the pIC50 (HCT116 (colon))?
Its pIC50 is 5.82.

What about the pIC50 (MCF7 (breast)) of the same compound?
The pIC50 was 5.28.

And the pIC50 (MDA-MB-231 (breast))?
The pIC50 was 5.36.

What about the pIC50 (A375 (melanoma)) of the same compound?
The pIC50 was 5.33.

And the pIC50 (H1299 (lung))?
Its pIC50 is 5.74.

What about the pIC50 (PC3 (prostate)) of the same compound?
The pIC50 was 5.89.

What about the pIC50 (MIAPaCa-2 (pancreas)) of the same compound?
Its pIC50 is 5.62.

What about the pIC50 [1] of the same compound?
The pIC50 was 6.48.

— patent US12168662B1, “Pyrido[4′,3′:4,5]pyrrolo[2,3-c][2,7]naphthyridines compounds as CK2 inhibitors” (KING FAISAL UNIVERSITY, priority 2023, dated 2024)
